# Source: ChEMBL document CHEMBL4400566, “Discovery of new ureido benzenesulfonamides incorporating 1,3,5-triazine moieties as carbonic anhydrase I, II, IX and XII inhibitors” (Bioorg Med Chem, 2019)
# Target: Carbonic anhydrase 9 (Homo sapiens, UniProt Q16790)
# Description: Inhibition of recombinant human carbonic anhydrase 9 incubated for 15 mins prior to testing measured for 5 to 10 secs by phenol red-based stopped-flow CO2 hydration assay
row,Ki,SMILES
1,151 nM,NS(=O)(=O)c1ccc(NC(=O)Nc2nc(Nc3ccc(F)cc3)nc(N3CCCCC3)n2)cc1
2,185 nM,NS(=O)(=O)c1ccc(NC(=O)Nc2nc(Nc3ccc(F)cc3)nc(N3CCOCC3)n2)cc1
3,11.8 nM,NS(=O)(=O)c1ccc(NC(=O)Nc2nc(Cl)nc(Nc3ccc(S(N)(=O)=O)cc3)n2)cc1
4,36.9 nM,NS(=O)(=O)c1ccc(NC(=O)Nc2nc(Nc3ccccc3)nc(N3CCOCC3)n2)cc1
5,14.1 nM,NS(=O)(=O)c1ccc(NC(=O)Nc2nc(Cl)nc(Nc3ccccc3)n2)cc1
6,105 nM,NS(=O)(=O)c1ccc(NC(=O)Nc2nc(Nc3ccc(Cl)c(Cl)c3)nc(N3CCOCC3)n2)cc1
7,38.1 nM,CN(C)c1nc(NC(=O)Nc2ccc(S(N)(=O)=O)cc2)nc(Nc2ccc(Cl)cc2)n1
8,46.8 nM,NS(=O)(=O)c1ccc(NC(=O)Nc2nc(Cl)nc(Nc3ccc(F)cc3)n2)cc1
9,87.9 nM,NS(=O)(=O)c1ccc(NC(=O)Nc2nc(Nc3ccc(Cl)c(Cl)c3)nc(N3CCCCC3)n2)cc1
10,43.3 nM,NS(=O)(=O)c1ccc(NC(=O)Nc2nc(Nc3ccc(Cl)cc3)nc(N3CCCCC3)n2)cc1
11,28.6 nM,NS(=O)(=O)c1ccc(NC(=O)Nc2nc(Nc3ccc(Cl)cc3)nc(N3CCOCC3)n2)cc1
12,66.9 nM,CN(C)c1nc(NC(=O)Nc2ccc(S(N)(=O)=O)cc2)nc(Nc2ccc(F)cc2)n1
13,28.4 nM,NS(=O)(=O)c1ccc(NC(=O)Nc2nc(Nc3ccc(S(N)(=O)=O)cc3)nc(N3CCCCC3)n2)cc1
14,35.6 nM,NS(=O)(=O)c1ccc(NC(=O)Nc2nc(Cl)nc(Nc3ccc(Cl)c(Cl)c3)n2)cc1
15,19 nM,CN(C)c1nc(NC(=O)Nc2ccc(S(N)(=O)=O)cc2)nc(Nc2ccccc2)n1
16,24.9 nM,NS(=O)(=O)c1ccc(NC(=O)Nc2nc(Nc3ccc(S(N)(=O)=O)cc3)nc(N3CCOCC3)n2)cc1
17,44 nM,NS(=O)(=O)c1ccc(NC(=O)Nc2nc(Cl)nc(Nc3ccc(Cl)cc3)n2)cc1
18,23.5 nM,CN(C)c1nc(NC(=O)Nc2ccc(S(N)(=O)=O)cc2)nc(Nc2ccc(Cl)c(Cl)c2)n1
19,32.3 nM,NS(=O)(=O)c1ccc(NC(=O)Nc2nc(Nc3ccccc3)nc(N3CCCCC3)n2)cc1
20,14.6 nM,CN(C)c1nc(NC(=O)Nc2ccc(S(N)(=O)=O)cc2)nc(Nc2ccc(S(N)(=O)=O)cc2)n1
